Columns and labels:
BRAF V600E = molecular target: T1, BRAF V600E (Homo sapiens, UniProt P15056, V600E); assay: Cellular assay of target protein degradation, T-Rex 293 cells stably transfected with HA-BRAF_V600E (HA immunofluorescence, high content imaging); assay type: cell-based; details: T-Rex 293 HA-BRAF V600E; for DC50: half maximal degradation, read-out: BRaf V600E DC50; for Dmax: maximum degradation observed
T1 construct: expressed in transfected cells
Method in brief: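 HA immunofluorescence on fixed cells, imaged by high-content reader, measured loss of HA-BRAF V600E in stably transfected T-Rex 293 cells induced with 1 ng/mL doxycycline. Compounds were applied for 24 h at 37 °C (final 0.1 nM–1 μM, 0.1% DMSO); DC50 and Dmax (% of control) were reported.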

BRAF G466V = molecular target: T2, BRAF G466V (Homo sapiens, UniProt P15056, G466V); assay: Cellular assay of target protein degradation, T-Rex 293 cells stably transfected with HA-BRAF G466V (HA immunofluorescence, high content imaging); assay type: cell-based; details: T-Rex 293 HA-BRAF G466V; for DC50: half maximal degradation, read-out: BRaf G466V DC50; for Dmax: maximum degradation observed
T2 construct: expressed in transfected cells
Method in brief: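 HA-BRAF G466V levels were read by HA immunofluorescence and high-content imaging after 24 h compound exposure (final 30 nM–3 pM, 0.1% DMSO, 37 °C). Expression was induced with 0.75 ng/mL doxycycline. Outputs: half-maximal degradation concentration (DC50) and maximal degradation (Dmax) relative to control.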

T1 sequence (P15056 whole entry V600E): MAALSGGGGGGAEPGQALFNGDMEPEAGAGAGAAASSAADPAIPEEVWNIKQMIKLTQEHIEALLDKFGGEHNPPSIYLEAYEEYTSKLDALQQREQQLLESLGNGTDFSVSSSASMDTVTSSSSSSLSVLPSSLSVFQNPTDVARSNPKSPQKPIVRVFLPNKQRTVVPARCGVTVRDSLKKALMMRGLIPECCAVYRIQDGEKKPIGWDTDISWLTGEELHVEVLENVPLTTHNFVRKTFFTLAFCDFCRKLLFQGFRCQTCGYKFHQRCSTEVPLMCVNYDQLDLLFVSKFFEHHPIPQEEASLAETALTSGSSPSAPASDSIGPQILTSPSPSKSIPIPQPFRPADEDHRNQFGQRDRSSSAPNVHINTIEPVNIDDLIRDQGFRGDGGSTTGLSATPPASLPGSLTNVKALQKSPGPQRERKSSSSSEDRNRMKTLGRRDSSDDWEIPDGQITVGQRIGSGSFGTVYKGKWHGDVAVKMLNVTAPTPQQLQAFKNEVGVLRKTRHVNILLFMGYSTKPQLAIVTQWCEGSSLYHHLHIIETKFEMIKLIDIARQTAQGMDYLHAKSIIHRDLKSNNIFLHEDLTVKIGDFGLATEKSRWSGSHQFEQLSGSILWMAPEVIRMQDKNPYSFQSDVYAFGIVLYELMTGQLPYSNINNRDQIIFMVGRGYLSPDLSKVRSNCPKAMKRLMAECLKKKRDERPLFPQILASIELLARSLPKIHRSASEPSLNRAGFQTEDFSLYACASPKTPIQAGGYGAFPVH
T2 sequence (P15056 whole entry G466V): as the sequence (P15056 whole entry V600E) above, with G466V, E600V counted along it

Compound | DC50 (BRAF V600E) [nM] | Dmax (BRAF V600E) [%] | DC50 (BRAF G466V) [nM] | Dmax (BRAF G466V) [%]
O=C1CCC(N2Cc3cc(C4CCN(C5CCN(c6ccc(-c7cnc8[nH]cc(C(=O)c9c(F)ccc(NS(=O)(=O)N%10CC[C@@H](F)C%10)c9F)c8c7)cc6)CC5)CC4)ccc3C2=O)C(=O)N1 (stereo partly drawn) [Compound 326, (3R)-N-{3-[5-(4-{4-[2-(2,6-dioxopiperidin-3-yl)-1-oxo-2,3-dihydro-1H-isoindol-5-yl]-[1,4′-bipiperidin]-1′-yl}phenyl)-1H-pyrrolo[2,3-b]pyridine-3-carbonyl]-2,4-difluorophenyl}-3-fluoropyrrolidine-1-sulfonamide] | 5 to 50 | 35 to 70 | < 1 | > 70
O=C1CC[C@H](N2Cc3cc(CC[C@@H](O)CN4CC5(C4)CN(c4ccc(-c6cnc7[nH]cc(C(=O)c8c(F)ccc(NS(=O)(=O)N9CC[C@@H](F)C9)c8F)c7c6)cc4)C5)ccc3C2=O)C(=O)N1 [Compound 327, (3R)-N-{3-[5-(4-{6-[(2R)-4-{2-[(3)S-2,6-dioxopiperidin-3-yl]-1-oxo-2,3-dihydro-1H-isoindol-5-yl}-2-hydroxybutyl]-2,6-diazaspiro[3.3]heptan-2-yl}phenyl)-1H-pyrrolo[2,3-b]pyridine-3-carbonyl]-2,4-difluorophenyl}-3-fluoropyrrolidine-1-sulfonamide] | 5 to 50 | 35 to 70 | 1 to 10 | > 70
O=C1CC[C@@H](N2Cc3cc(CC[C@@H](O)CN4CC5(C4)CN(c4ccc(-c6cnc7[nH]cc(C(=O)c8c(F)ccc(NS(=O)(=O)N9CC[C@@H](F)C9)c8F)c7c6)cc4)C5)ccc3C2=O)C(=O)N1 [Compound 328, (3R)-N-{3-[5-(4-{6-[(2R)-4-{2-[(3R)-2,6-dioxopiperidin-3-yl]-1-oxo-2,3-dihydro-1H-isoindol-5-yl}-2-hydroxybutyl]-2,6-diazaspiro[3.3]heptan-2-yl}phenyl)-1H-pyrrolo[2,3-b]pyridine-3-carbonyl]-2,4-difluorophenyl}-3-fluoropyrrolidine-1-sulfonamide] | 5 to 50 | 35 to 70 | 1 to 10 | > 70
O=C1CCC(N2Cc3cc(N4CCC(CN5CC[C@H]6[C@@H](C5)CN6c5ccc(-c6cnc7[nH]cc(C(=O)c8c(F)ccc(NS(=O)(=O)N9CC[C@@H](F)C9)c8F)c7c6)cc5)CC4)ccc3C2=O)C(=O)N1 (stereo partly drawn) [Compound 329, (3R)-N-[3-(5-{4-[(1S,6S)-3-({1-[2-(2,6-dioxopiperidin-3-yl)-1-oxo-2,3-dihydro-1H-isoindol-5-yl]piperidin-4-yl}methyl)-3,7-diazabicyclo[4.2.0]octan-7-yl]phenyl}-1H-pyrrolo[2,3-b]pyridine-3-carbonyl)-2,4-difluorophenyl]-3-fluoropyrrolidine-1-sulfonamide] | 5 to 50 | 35 to 70 | 1 to 10 | > 70
O=C1CCC(N2Cc3cc(N4CCC(CN5CC(C6CN(c7ccc(-c8cnc9[nH]cc(C(=O)c%10c(F)ccc(NS(=O)(=O)N%11CC[C@@H](F)C%11)c%10F)c9c8)cc7)C6)C5)CC4)ccc3C2=O)C(=O)N1 (stereo partly drawn) [Compound 330, (3R)-N-[3-(5-{4-[1′-({1-[2-(2,6-dioxopiperidin-3-yl)-1-oxo-2,3-dihydro-1H-isoindol-5-yl]piperidin-4-yl}methyl)-[3,3′-biazetidin]-1-yl]phenyl}-1H-pyrrolo[2,3-b]pyridine-3-carbonyl)-2,4-difluorophenyl]-3-fluoropyrrolidine-1-sulfonamide] | 5 to 50 | 35 to 70 | 1 to 10 | > 70
COc1cc(OCCCCN2CCN(c3ccc(-c4cnc5[nH]cc(C(=O)c6c(F)ccc(NS(=O)(=O)N7CC[C@@H](F)C7)c6F)c5c4)cc3)CC2)cc2c1C(=O)N(C1CCC(=O)NC1=O)C2 (stereo partly drawn) [Compound 331, (3R)-N-[3-(5-{4-[4-(4-{[2-(2,6-dioxopiperidin-3-yl)-7-methoxy-1-oxo-2,3-dihydro-1H-isoindol-5-yl]oxy}butyl)piperazin-1-yl]phenyl}-1H-pyrrolo[2,3-b]pyridine-3-carbonyl)-2,4-difluorophenyl]-3-fluoropyrrolidine-1-sulfonamide] | 5 to 50 | 35 to 70 | 1 to 10 | 35 to 70
O=C1CCC(N2Cc3cc(CCCCN4CCC(c5ccc(-c6cnc7[nH]cc(C(=O)c8c(F)ccc(NS(=O)(=O)N9CC[C@@H](F)C9)c8F)c7c6)cc5)CC4)ccc3C2=O)C(=O)N1 (stereo partly drawn) [Compound 332, (3R)-N-(3-{5-[4-(1-{4-[2-(2,6-dioxopiperidin-3-yl)-1-oxo-2,3-dihydro-1H-isoindol-5-yl]butyl}piperidin-4-yl)phenyl]-1H-pyrrolo[2,3-b]pyridine-3-carbonyl}-2,4-difluorophenyl)-3-fluoropyrrolidine-1-sulfonamide] | 5 to 50 | 35 to 70 | 1 to 10 | > 70
O=C1CCC(N2Cc3cc(N4CCN(CC5CCN(c6ccc(-c7cnc8[nH]cc(C(=O)c9c(F)ccc(NS(=O)(=O)N%10CC[C@@H](F)C%10)c9F)c8c7)cc6)CC5)CC(F)(F)C4)ccc3C2=O)C(=O)N1 (stereo partly drawn) [Compound 333, (3R)-N-[3-(5-{4-[4-({4-[2-(2,6-dioxopiperidin-3-yl)-1-oxo-2,3-dihydro-1H-isoindol-5-yl]-6,6-difluoro-1,4-diazepan-1-yl}methyl)piperidin-1-yl]phenyl}-1H-pyrrolo[2,3-b]pyridine-3-carbonyl)-2,4-difluorophenyl]-3-fluoropyrrolidine-1-sulfonamide] | > 500 | – | 1 to 10 | < 35
O=C1CCC(N2Cc3cc(N4CC(CN5CCC(C6(c7ncc(-c8cnc9[nH]cc(C(=O)c%10c(F)ccc(NS(=O)(=O)N%11CC[C@@H](F)C%11)c%10F)c9c8)cn7)CC6)CC5)C4)ccc3C2=O)C(=O)N1 (stereo partly drawn) [Compound 334] | 50 to 500 | 35 to 70 | 1 to 10 | > 70
O=C1CC[C@H](N2Cc3cc(N4CC[C@@H](COc5ccc(-c6cnc7[nH]cc(C(=O)c8c(F)ccc(NS(=O)(=O)N9CC[C@@H](F)C9)c8F)c7c6)cc5)C4)ccc3C2=O)C(=O)N1 [Compound 335, (3R)-N-{3-[5-(4-{[(3R)-1-{2-[(3S)-2,6-dioxopiperidin-3-yl]-1-oxo-2,3-dihydro-1H-isoindol-5-yl}pyrrolidin-3-yl]methoxy}phenyl)-1H-pyrrolo[2,3-b]pyridine-3-carbonyl]-2,4-difluorophenyl}-3-fluoropyrrolidine-1-sulfonamide] | > 500 | – | > 30 | –
O=C1CC[C@@H](N2Cc3cc(N4CC[C@@H](COc5ccc(-c6cnc7[nH]cc(C(=O)c8c(F)ccc(NS(=O)(=O)N9CC[C@@H](F)C9)c8F)c7c6)cc5)C4)ccc3C2=O)C(=O)N1 [Compound 336, (3R)-N-{3-[5-(4-{[(3R)-1-{2-[(3R)-2,6-dioxopiperidin-3-yl]-1-oxo-2,3-dihydro-1H-isoindol-5-yl}pyrrolidin-3-yl]methoxy}phenyl)-1H-pyrrolo[2,3-b]pyridine-3-carbonyl]-2,4-difluorophenyl}-3-fluoropyrrolidine-1-sulfonamide] | > 500 | 35 to 70 | > 30 | –
Cn1c(=O)n(C2CCC(=O)NC2=O)c2cccc(C3CCN(CC4CCN(c5ccc(-c6cnc7[nH]cc(C(=O)c8c(F)ccc(NS(=O)(=O)N9CC[C@@H](F)C9)c8F)c7c6)cc5)CC4)CC3)c21 (stereo partly drawn) [Compound 337, (3R)—N-(3-(5-(4-(4-((4-(1-(2,6-dioxopiperidin-3-yl)-3-methyl-2-oxo-2,3-dihydro-1H-benzo[d]imidazol-4-yl)piperidin-1-yl)methyl)piperidin-1-yl)phenyl)-1H-pyrrolo[2,3-b]pyridine-3-carbonyl)-2,4-difluorophenyl)-3-fluoropyrrolidine-1-sulfonamide] | 5 to 50 | 35 to 70 | 1 to 10 | > 70
CCCS(=O)(=O)Nc1ccc(F)c(-n2cc(-c3cncnc3)c3nc(N(C)C4CCN(C(=O)CCOCCOCCOCCOCCNc5cccc6c5C(=O)N(C5CCC(=O)NC5=O)C6=O)CC4)ccc32)c1F (stereo not drawn) [Compound 338] | 50 to 500 | 35 to 70 | 10 to 30 | 35 to 70
O=C1CC[C@H](NC(=O)c2ccc(N3CCC(CN4CCN(c5ccc(-c6cnc7[nH]cc(C(=O)c8c(F)ccc(NS(=O)(=O)N9CC[C@@H](F)C9)c8F)c7c6)cc5)CC4)CC3)cc2F)C(=O)N1 [Compound 339, 4-(4-{[4-(4-{3-[2,6-difluoro-3-({[(3R)-3-fluoropyrrolidin-1-yl]sulfonyl}amino)benzoyl]-1H-pyrrolo[2,3-b]pyridin-5-yl}phenyl)piperazin-1-yl]methyl}piperidin-1-yl)-N-[(3S)-2,6-dioxopiperidin-3-yl]-2-fluoorobenzamide] | 5 to 50 | 35 to 70 | 1 to 10 | > 70
O=C1CC[C@@H](NC(=O)c2ccc(N3CCC(CN4CCN(c5ccc(-c6cnc7[nH]cc(C(=O)c8c(F)ccc(NS(=O)(=O)N9CC[C@@H](F)C9)c8F)c7c6)cc5)CC4)CC3)cc2F)C(=O)N1 [Compound 340] | 50 to 500 | < 35 | 1 to 10 | 35 to 70
O=C1CC[C@H](NC(=O)c2ccc(N3CCN(CC4CCN(c5ccc(-c6cnc7[nH]cc(C(=O)c8c(F)ccc(NS(=O)(=O)N9CC[C@@H](F)C9)c8F)c7c6)cc5)CC4)CC3)cc2F)C(=O)N1 [Compound 341, 4-(4-{[1-(4-{3-[2,6-difluoro-3-({[(3R)-3-fluoropyrrolidin-1-yl]sulfonyl}amino)benzoyl]-1H-pyrrolo[2,3-b]pyridin-5-yl}phenyl)piperidin-1-yl]methyl}piperazin-1-yl)-N-[(3S)-2,6-dioxopiperidin-3-yl]-2-fluorobenzamide] | 5 to 50 | 35 to 70 | 1 to 10 | > 70
